Assay results from EP3586875A1, “STABILIZATION OF POLYSORBATE” (Lonza Limited, priority 2018, dated 2020).

Assays:
Format in all cases: physicochemical
[1] = LC-UV-MS quantification of 4HNE in PS80 solutions after storage; details: 10% PS80; Air; 100-fold diluted; RL 50 micro M
Protocol: Studies were performed to investigate oxidative degradation of PS20 and PS80 in aqueous solutions containing the antioxidants BHT or BHA. The following solutions were tested: • 1) polysorbate solutions of 10% (w/v) ± 0.02% (w/v) of the respective antioxidant, • 2) polysorbate solutions of 0.1% (w/v) ± 0.0002% (w/v) of the respective antioxidant. For solution 1), stabilized (containing the antioxidant BHT or BHA at a concentration of 0.2% (w/w)) and unstabilized (not containing any antioxidant) neat PS was diluted to a concentration of 10% (w/v) by adding 5 g of PS into a 50 mL volumetric flask and filling up to the 50 mL mark with H2O. The solution was stirred with a magnetic stirrer for about 20 minutes to ensure complete dissolution of PS. 5 ml of each solution was aliquoted into 6R vials. Each vial was closed with a stopper and a cap. […]
LC-UV-MS was used to quantify 4HNE levels in solutions of 10% PS80 (w/v) ± 0.02% (w/v) of the antioxidants BHT or BHA. […]
Quantification of 4HNE was achieved by integration of the LC-UV signals (lambda = 220 nm) and using a calibration curve obtained from the integrated LC-UV signals (lambda = 220 nm) of the external reference 4HNE. As a reference standard aqueous 4HNE solutions with concentrations between 0.05 ppm and 1 ppm were prepared and directly analyzed by LC-UV-MS. […]

[2] = HPLC-FMA (fluorescence micelle assay), polysorbate concentration after storage; details: diluted to target 0.04% PS (w/v)
Protocol: (§1) Studies were performed to investigate oxidative degradation of PS20 and PS80 in aqueous solutions containing the antioxidants BHT or BHA. The following solutions were tested: • 1) polysorbate solutions of 10% (w/v) ± 0.02% (w/v) of the respective antioxidant, • 2) polysorbate solutions of 0.1% (w/v) ± 0.0002% (w/v) of the respective antioxidant. For solution 1), stabilized (containing the antioxidant BHT or BHA at a concentration of 0.2% (w/w)) and unstabilized (not containing any antioxidant) neat PS was diluted to a concentration of 10% (w/v) by adding 5 g of PS into a 50 mL volumetric flask and filling up to the 50 mL mark with H2O. The solution was stirred with a magnetic stirrer for about 20 minutes to ensure complete dissolution of PS. 5 ml of each solution was aliquoted into 6R vials. Each vial was closed with a stopper and a cap.
For solution 2), 50 micro L of the 10% (w/v) PS solutions were transferred into 6R vials and filled up with 4.95 mL H2O to a final concentration of 0.1% (w/v) PS.
(§2) Throughout the experiments, the solutions were subjected to three different conditions as follows: "T0": stored at -20°C for 7 weeks, "H2O2": stored at 25°C and 60% humidity for 7 weeks in the presence of hydrogen peroxide (H2O2) at a concentration of 10% (w/w) based on the molar ratio of used antioxidant. "Air": stored at 40°C and 75% humidity for 7 weeks and exposed to air (needle in vial stopper for free air exchange during incubation).
HPLC FMA was used to measure the concentration of polysorbate in solutions of 10% PS20 ± 0.02% (w/v) of the antioxidants BHT or BHA, solutions of 10% PS80 (w/v) ± 0.02% (w/v) of the antioxidants BHT or BHA, and solutions of 0.1% PS80 (w/v) ± 0.0002% (w/v) of the antioxidants BHT or BHA. Samples were diluted to the target concentration of 0.04% PS (w/v) prior to analysis.
The following HPLC fluorescence detector conditions were applied: Column: knitted reaction coil L x I.D. 20mx 0.25mm, volume 1.0mL SUPELCO, ambient temperature; injection volume: 10 micro L; flow: 1.5 mL/min; isocratic 2min (A: 0.15M sodium chloride, 0.05 M L-histidine, pH = 6, 5%(v/v) acetonitrile, 5 micro M N-phenyl-1-naphtylamine (NPN), 15 ppm Brij® 35); FLD: lambda excitation = 350 nm, lambda emission = 420 nm, data mode: emission.
Quantification of each sample type was performed by using 10% T0 samples for preparation of an external calibration curve from 0.02% to 0.06% PS.
Empower 2 was used as software for quantification.
The assay is based on the uptake of the fluorescent dye NPN by surfactant micelles using flow injection analysis and subsequent fluorescence detection. The dye is present in the mobile phase. In the lipophilic surrounding in the inside of the micelles the fluorescent signal is 10-fold higher than in aqueous mobile phase. Therefore, the concentration of polysorbate can be measured according to the formation of micelles and the uptake of the dye by the subsequent increase of the signal intensity.

[3] = LC-UV-MS quantification of free fatty acids in polysorbate solutions after storage
Protocol: as §1, §2
LC-UV-MS was used to quantify FFA levels in solutions of 10% PS (w/v) ± 0.02% (w/v) of the antioxidants BHT or BHA. The FFAs lauric acid, myristic acid and palmitic acid were quantified for PS20-containing solutions and palmitic acid, stearic acid and oleic acid were quantified for PS80-containing solutions. The RL for all FFAs was 50000 ppb.
LC-UV-MS conditions were applied as in Example 2. Quantification of the FFAs was achieved by integration of the LC-MS signals at their corresponding ion trace (lauric acid = m/z 199.3; myristic acid = m/z 227.3; palmitic acid = m/z 255.3; stearic acid = m/z 283.3; oleic acid = m/z 281.3) in negative mode and using a calibration curve obtained from the integrated LC-MS signals of each corresponding ion trace of the external reference of lauric acid, myrisitic acid, palmitic acid, stearic acid and oleic acid. FFA reference standards in aqueous solutions at concentrations from 0.5 ppm to 5 ppm were prepared. All reference standard solutions were directly analyzed by LC-UV-MS.

[4] = HS-GC-MS quantification of headspace hexanal in PS80 solutions after storage; details: 10% PS80, RL of 100 ppb
Protocol: as §1, §2
GC-MS was used to quantify headspace hexanal levels for solutions of 10% PS (w/v) ± 0.02% (w/v) of the antioxidants BHT or BHA.
The following HS-GC-MS conditions were applied: Headspace oven: 10 min at 80°C, Column: Agilent HP-5MS, 30 m x 250 micro M x 0.25 micro M; GC oven: 3 min at 35°C, then 20°C/min to 320°C, then 10 min at 320°C; column flow: 1.3 mL/min; MS: Full scan, m/z = 35 - 300. As a reference standard aqueous toluene solutions with concentrations between 0.1 ppm and 1 ppm in 10 mL H2O were prepared and directly analyzed by HS-GC-MS.
1 mL of each sample was transferred into a headspace vial with a volume of 20 mL, closed, and analyzed directly.
Quantification was achieved by integration of the HS-GC-MS signals (TIC) and using a calibration curve obtained from the integrated HS-GC-MS signals (TIC) of the external reference toluene.
Tentative identification of degradants was performed by comparing the mass spectrum of each GC-MS signal against the NIST14 standard reference database.
The degradant most consistently identified by HS-GC-MS to show a value above the RL of 100 ppb was hexanal.

Row | X = calculated fatty acid concentration in ppb, Lauric acid ([3]; 7 weeks, 0.02 % (w/v)) | X = calculated fatty acid concentration in ppb, Myristic acid ([3]; 7 weeks, 0.02 % (w/v)) | X = calculated fatty acid concentration in ppb, Oleic acid ([3]; 7 weeks, 0.02 % (w/v)) | X = calculated fatty acid concentration in ppb, Stearic acid ([3]; 7 weeks, 0.02 % (w/v)) | SMILES | 4HNE measured [1] | X= calculated concentration in % of the average of 2 injections (polysorbate) ([2]; PS20 - 10%, Air) | X= calculated concentration in % of the average of 2 injections (polysorbate) ([2]; PS80 - 0.1%, H2O2, RL 0.02%) | X= calculated concentration in % of the average of 2 injections (polysorbate) ([2]; PS80 - 10%, Air, RL 0.02%) | X = calculated fatty acid concentration in ppb, Lauric acid ([3]; PS20 - 10%, Air, RL 50000ppb) | X = calculated fatty acid concentration in ppb, Myristic acid ([3]; PS20 - 10%, Air, RL 50000ppb) | X = calculated fatty acid concentration in ppb, Oleic acid ([3]; PS80 - 10%, Air, RL 50000ppb) | X = calculated fatty acid concentration in ppb, Stearic acid ([3]; PS80 - 10%, Air, RL 50000ppb) | hexanal (headspace) ([4]; Air) | hexanal (headspace) ([4]; H2O2) | hexanal (headspace) ([4]; T0)
1 |  |  |  |  | COc1ccc(O)c(C(C)(C)C)c1 [BHA, butylated hydroxyanisole] | < 50 micro M | ~0.04% | ~0.04% | ~0.04% | below 200000 ppb | around 50000 ppb | around 200000 ppb | around 60000 ppb | no hexanal could be detected | no hexanal could be detected | no hexanal could be detected
2 | below 200000 ppb | around 50000 ppb | around 100000 ppb | around 60000 ppb | Cc1cc(C(C)(C)C)c(O)c(C(C)(C)C)c1 [BHT, butylated hydroxytoluene] | < 50 micro M | ~0.04% | ~0.04% | ~0.04% |  |  |  |  | no hexanal could be detected | no hexanal could be detected | no hexanal could be detected
